The test concerns the target T1, HpVAL-4 (Heligmosomoides polygyrus, UniProt A0A183GMB4).
T1 construct: mature protein, Arabidopsis chitinase signal peptide for secretion, no tag mentioned; Nicotiana benthamiana leaf apoplast; N-glycosylated
Nature of the test: radioligand binding, adsorption to Q-Sepharose, scintillation counting.

For orientation: Kd means the equilibrium constant for the complex coming apart. A low value points to tighter binding.

Molecules are shown by their SMILES.

T1 sequence (A0A183GMB4 entry or part of it): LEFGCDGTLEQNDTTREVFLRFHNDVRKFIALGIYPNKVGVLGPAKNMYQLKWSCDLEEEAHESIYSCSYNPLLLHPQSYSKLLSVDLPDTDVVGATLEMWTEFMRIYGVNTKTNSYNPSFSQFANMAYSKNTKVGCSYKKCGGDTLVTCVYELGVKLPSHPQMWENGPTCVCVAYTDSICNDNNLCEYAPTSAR

Consider `CC(C)CCC[C@@H](C)[C@H]1CC[C@H]2[C@@H]3CC=C4C[C@@H](O)CC[C@]4(C)[C@H]3CC[C@]12C` [cholesterol], for which the Kd worked out at 1530 nM.

Source of the values: article PMC5893428, “Heligmosomoides polygyrus Venom Allergen-like Protein-4 (HpVAL-4) is a sterol binding protein” (International Journal for Parasitology, 2018).
